Experimental data published in the NIST ThermoML archive (doi:10.1021/je1009619).
Numbers after ± are expanded uncertainties.

Key:
[1] = Liquid, Vibrating tube method
[2] = xn = mol fraction of the nth substance listed; details: Liquid, Vibrating tube method, x1 = 1

C=C(C)[C@H]1CC=C(C)CC1 [(R)-1-methyl-4-(1-methylethenyl)cyclohexene]
mass density [kg/m3], [1]
Details	283.15 K	298.15 K	313.15 K	328.15 K	343.15 K	358.15 K
20000 kPa	862 ± 0.9	851.5 ± 0.9	841 ± 0.9	830.5 ± 0.9	820.1 ± 0.9	810.2 ± 0.9
25000 kPa	864.9 ± 0.9	854.5 ± 0.9	844.2 ± 0.9	833.8 ± 0.9	823.7 ± 0.9	813.9 ± 0.9
30000 kPa	867.7 ± 0.9	857.6 ± 0.9	847.2 ± 0.9	837.2 ± 0.9	827.3 ± 0.9	817.6 ± 0.9
35000 kPa	870.4 ± 0.9	860.9 ± 0.9	850.3 ± 0.9	840.4 ± 1	831.1 ± 1	821.3 ± 1
40000 kPa	873.3 ± 1	863.4 ± 1	853.3 ± 1	843.8 ± 1	834.6 ± 1	824.8 ± 1

C=C(C)[C@H]1CC=C(C)CC1 [(R)-1-methyl-4-(1-methylethenyl)cyclohexene] + CC1=CC[C@H]2C[C@@H]1C2(C)C
mass density [kg/m3], [2]
Details	283.15 K	298.15 K	313.15 K	328.15 K	343.15 K	358.15 K
20000 kPa	862 ± 0.9	851.5 ± 0.9	841 ± 0.9	830.5 ± 0.9	820.1 ± 0.9	810.2 ± 0.9
25000 kPa	864.9 ± 0.9	854.5 ± 0.9	844.2 ± 0.9	833.8 ± 0.9	823.7 ± 0.9	813.9 ± 0.9
30000 kPa	867.7 ± 0.9	857.6 ± 0.9	847.2 ± 0.9	837.2 ± 0.9	827.3 ± 0.9	817.6 ± 0.9
35000 kPa	870.4 ± 0.9	860.9 ± 0.9	850.3 ± 0.9	840.4 ± 1	831.1 ± 1	821.3 ± 1
40000 kPa	873.3 ± 1	863.4 ± 1	853.3 ± 1	843.8 ± 1	834.6 ± 1	824.8 ± 1

CC1=CC[C@H]2C[C@@H]1C2(C)C [(S)-2-pinene]
mass density [kg/m3], [1]
Details	283.15 K	298.15 K	313.15 K	328.15 K	343.15 K	358.15 K
20000 kPa	880 ± 0.9	868.8 ± 0.9	858 ± 0.9	846.7 ± 0.9	835.9 ± 0.9	825 ± 0.9
25000 kPa	883.2 ± 0.9	872.1 ± 0.9	861.3 ± 0.9	850.4 ± 0.9	839.7 ± 0.9	829.2 ± 0.9
30000 kPa	886.3 ± 0.9	875.3 ± 0.9	864.7 ± 0.9	854 ± 0.9	843.8 ± 0.9	833.3 ± 0.9
35000 kPa	889.4 ± 0.9	878.6 ± 0.9	867.9 ± 0.9	857.5 ± 0.9	847.7 ± 1	837.4 ± 1
40000 kPa	892.5 ± 1	881.9 ± 1	871.3 ± 1	861.1 ± 1	851.4 ± 1	841.5 ± 1
